{
  "source": "patent US7732160B2",
  "about": "“Methamphetamine derivatives and conjugates for immunoassay” (Roche Diagnostics Operations, Inc., priority 2004, dated 2010)",
  "key": {"[1]": {"system": "monoclonal antibody NEAMP 48.2", "test": "Microparticle agglutination immunoassay with conjugate (12) and N-ethylamphetamine antibody-coated particles, percent cross-reactivity", "assay_type": "binding", "details": "NEAMP 48.2 antibody with conjugate (12)", "protocol": "The conjugate reagent was prepared as described in Example 16.\nAn antibody-coated microparticle was prepared as described in Example 16 using monoclonal antibody NEAMP 48.2 described in U.S. 2004/0077021. A microparticle reagent was then prepared as described in Example 16.\nThe assay was carried out on a Roche/Hitachi 917 analyzer as described in Example 16.\nPercent cross-reactivity was determined in an ammunoassay. A standard curve was established using known amounts of the target analyte methylenedioxyethylamphetamine (MDEA). Known amounts of various amphetamine-related drugs were to be analyzed as samples in the immunoassay, and apparent concentrations of these drugs were generated from the standard curve. Apparent concentration of the drug, divided by actual concentration and multiplied by 100, is the percent cross-reactivity of this drug."}, "[2]": {"system": "monoclonal antibody specific for methamphetamine", "test": "Microparticle agglutination immunoassay with conjugate (12) and methamphetamine antibody-coated particles, percent cross-reactivity", "assay_type": "binding", "details": "methamphetamine antibody with conjugate (12)"}},
  "data": [
    {"smiles": "CCNC(C)Cc1ccc2c(c1)OCO2", "note": "(centres unmarked) [MDEA, 3,4-methylenedioxy-N-ethylamphetamine]", "values": [
      {"measurement": "Cross-reactivity", "setting": "[1]", "result": "good cross-reactivity"}
    ]},
    {"smiles": "CN[C@@H](C)[C@@H](O)c1ccccc1", "note": "[d-pseudoephedrine]", "values": [
      {"measurement": "Cross-reactivity", "setting": "[1]", "result": "essentially none"}
    ]},
    {"smiles": "CC(C)(N)Cc1ccccc1", "note": "[Phentermine]", "values": [
      {"measurement": "Cross-reactivity", "setting": "[1]", "result": "essentially none"}
    ]},
    {"smiles": "NCCc1ccc(O)cc1", "note": "[Tyramine]", "values": [
      {"measurement": "Cross-reactivity", "setting": "[1]", "result": "essentially none"}
    ]},
    {"smiles": "CN[C@@H](C)[C@H](O)c1ccccc1", "note": "[l-ephedrine]", "values": [
      {"measurement": "Cross-reactivity", "setting": "[1]", "result": "essentially none"}
    ]},
    {"smiles": "CNC(C)Cc1ccc2c(c1)OCO2", "note": "(centres unmarked) [MDMA, 3,4-methylenedioxy-N-methylamphetamine]", "values": [
      {"measurement": "Cross-reactivity", "setting": "[2]", "result": "good cross-reactivity"}
    ]},
    {"smiles": "CN[C@@H](C)Cc1ccccc1", "note": "[d-Methamphetamine]", "values": [
      {"measurement": "Cross-reactivity", "setting": "[2]", "result": "good cross-reactivity"}
    ]},
    {"smiles": "CCC(Cc1ccc2c(c1)OCO2)NC", "note": "(centres unmarked) [MBDB, 3,4-methylenedioxyphenyl-N-methylbutanamine]", "values": [
      {"measurement": "Cross-reactivity", "setting": "[2]", "result": "good cross-reactivity"}
    ]}
  ]
}
